{"source": "patent US20110295343A1", "about": "“NEAR-INFRARED ELECTROMAGNETIC MODIFICATION OF CELLULAR STEADY-STATE MEMBRANE POTENTIALS” (priority 2008, published 2011)", "tested_on": "MRSA", "test": "CFU counts of MRSA plated on agar with antibiotic after sub-lethal NIMELS laser (Examples IX-XII)", "format": "cell-based, Staphylococcus aureus", "conditions": "antibiotic at resistant MIC just below effectiveness level", "source_text": "The following parameters illustrate the general bacterial methods according to the invention as applied to MRSA for the in vitro Experiments V and VIII-XII.\nThe null hypothesis is μ1−μ2=0 and μ1−μ3=0 where:\na) μ1 is sub-lethal dosimetry from the NIMEL laser system on MRSA as a control and;\nThe null hypothesis is μ1−μ2=0 and μ1−μ3=0 where: • a) μ1 is sub-lethal dosimetry from the NIMEL laser system on MRSA as a control and; • b)μ2 is the same sub-lethal dosimetry from the NIMEL laser system on MRSA with the addition of tetracycline at resistant MIC just below effectiveness level and; • c) μ3 is the same sub-lethal dosimetry from the NIMEL laser system on MRSA with the addition of rifampin at resistant MIC just below effectiveness level.\nThe null hypothesis is μ1−μ2=0 and μ1−μ3=0 where: a) μ1 is sub-lethal dosimetry from the NIMEL laser system on MRSA as a control and; b)μ2 is the same sub-lethal dosimetry from the NIMEL laser system on MRSA with the addition of methicillin at resistant MIC just below effectiveness level and; […]", "data": [{"smiles": "COc1cccc(OC)c1C(=O)N[C@@H]1C(=O)N2[C@@H]1SC(C)(C)[C@@H]2C(=O)O", "note": "[Methicillin]", "values": [{"measurement": "effect of sub-lethal NIMELS irradiation on antibiotic action against MRSA colonies (words)", "result": "successful reversal of MRSA resistance"}, {"measurement": "effect of sub-lethal NIMELS irradiation on antibiotic action against MRSA colonies (words)", "setting": "listed as methicillin", "result": "being potentiated by the NIMELS effect"}]}]}
